{"source": "paper PMC8080595", "about": "“Discovery of a novel RORγ antagonist with skin-restricted exposure for topical treatment of mild to moderate psoriasis” (Scientific Reports, 2021)", "key": {"Dermal PK, miniature pig": {"assay": "Dermal PK, miniature pig", "assay_type": "in vivo, Bama miniature pig", "settings": "for Exposure in plasma: topical", "experimental": "Similar procedures were carried out for dermal PK of female SD rats and female Bama miniature pigs. Briefly, each area of topical application was 4 cm × 9 cm for SD rats and 6 cm × 6 cm for miniature pigs. After decontamination, the biopsy sections of SD rats were tape stripped for five times and those of miniature pig for twenty-five times, respectively. Blood and dorsal skin tissues of the animals were collected and analyzed for the compounds via LC/MS. The experimental protocol used in this study was approved by the Institutional Animal Care and Use Committees (IACUC). The experiments were conducted in accordance with the Guiding Principles for the Care and Use of Laboratory Animals and complied with the ARRIVE guidelines."}, "[1]": {"test_system": "IL-23-induced psoriasis-like skin inflammation mice", "assay": "IL-23-induced psoriasis-like skin inflammation mouse model, topical treatment", "assay_type": "in vivo", "settings": "for IL17 / IL-6 / TNFα / Thickness of the back skin: day 8, Mean ± SEM, n = 10", "experimental": "Psoriasis was induced by intradermal injection of IL-23 on mouse skin as described by Rizzo et al.[19]. Three days later after shaving (day 1), two injections of IL-23 (0.5 µg protein per mouse) were performed on both sides of the dorsal skin (except naïve group) for 8 days. SHR168442 in Vaseline was topically applied daily starting three day before IL-23 injections, and then twice a day starting on the day of IL-23 injections. The mice were weighed daily, and the skin were scored daily on a scale from 0 to 4. At day 8, the skin thickness was measured in live mice with a caliper and the animal was sacrificed 3 h after the first topical application. The in-life portion of the study was carried out at Nanjing University (Nanjing, China). The experimental protocol used in this study was approved by IACUC in Nanjing, China. The experiments were conducted in accordance with the Guiding Principles for the Care and Use of Laboratory Animals and complied with the ARRIVE guidelines.\nIL-17A, IL-6 and TNFα were determined in plasma collected at day 8 using a cytometric bead array (BD Biosciences) following the vendor's instruction."}, "[2]": {"assay": "Liver microsomal stability, human", "assay_type": "in vitro ADME", "settings": "human, liver microsomes, pH 7.4; 1 µM compound, 0.5 mg/ml microsome, NADPH, 37 °C; read-out: Liver microsomal stability, t1/2, Human", "experimental": "The compound was mixed with 0.5 mg/ml human liver microsome (Thermal Fisher) at a final concentration of 1 µM in 100 mM potassium phosphate buffer, pH 7.4. The reactions were initiated by the addition of 1 mM NADPH. Samples in duplicate were incubated at 37 °C with mixing. 100 µL aliquots were transferred after 0, 5, 10, 30, 45, 60 minutes to a new tube with 300 µL acetonitrile, incubated on ice for 30 minutes, centrifuged at 1800×g at 4 °C for 10 minutes. The supernatants were transferred to glass vials subjected to LC/MS analysis. Peak areas were measured to calculate half-life according to the formula t1/2 = − 0.693/slope of linear regression analysis of ln [concentration] versus incubation time. Similar methods were applied to access mouse and rat liver microsomal stability of the compounds."}, "[3]": {"test_system": "IMQ-induced psoriasis-like skin inflammation mice", "assay": "IMQ-induced psoriasis-like skin inflammation model, topical treatment", "assay_type": "in vivo, BALB/c mice", "experimental": "At the end of the study, the mouse plasma and diseased back skin were collected 3 h after topical application for PK analysis.\nPsoriasis was induced by topical application of IMQ cream on the shaved dorsal skin as described by Leslie van der Fits et al.[18]. SHR168442 in Vaseline (n = 10 per group) was treated once a day (QD) from 3 days prior to day 1, and then twice a day (BID) from day 1 to day 6. The animal was sacrificed at 3 h after the first dose in the morning of day 7. Erythema, scaling, and thickness of the back skin were scored independently daily on a scale from 0 to 4. Blood and back skin tissues from the study were collected at 3 h (n = 4) post dosing in the morning of […]. The plasma and skin tissues after tape stripping were analyzed for Compound 1 as described above. The in-life portion of the study was carried out at Washington Biotechnology (Baltimore, MD). The housing conditions and in-life procedures were approved by IACUC. The experiments were conducted in accordance with the Guiding Principles for the Care and Use of Laboratory Animals and complied with the ARRIVE guidelines."}, "[4]": {"test_system": "IL-17 secretion in mouse splenocyte", "assay": "Mouse IL-17 production assay using mouse splenocyte", "assay_type": "cell-based", "settings": "Th17 differentiation, 72 h, n = 3, read-out: inhibition of secretion of IL-17 in mouse splenocyte, average IC50", "experimental": "To evaluate the impact of SHR168442 on IL-17 secretion in mouse cells, the mouse Th17 cell differentiation kit from R&D Systems was used to polarize the mouse spleen cells. Differentiation of Th17 cells in mouse splenocyte for 72 h was confirmed by secretion of IL-17 in culture supernatant, 93 pg/mL in average (2.7 pg/mL without differentiation), a 34-fold increase of IL-17 secretion.\nMouse splenocytes (Zenbio) were stimulated by Mouse Th17 Differentiation Media (R&D Systems) according to the manufacturer’s protocol. On day 5, compounds were added and then incubated for 72 h, and IL-17 in the supernatant was measured using IL-17A homodimer (mouse) AlphaLISA detection kit (Perkin Elmer) according to the manufacturer’s protocol."}, "ADORA2A": {"molecular_target": "T1, ADORA2A (Homo sapiens, UniProt P29274)", "T1 construct": "purchased DiscoverX (Eurofins) SAFETYscan47", "T1 sequence (P29274 whole entry)": "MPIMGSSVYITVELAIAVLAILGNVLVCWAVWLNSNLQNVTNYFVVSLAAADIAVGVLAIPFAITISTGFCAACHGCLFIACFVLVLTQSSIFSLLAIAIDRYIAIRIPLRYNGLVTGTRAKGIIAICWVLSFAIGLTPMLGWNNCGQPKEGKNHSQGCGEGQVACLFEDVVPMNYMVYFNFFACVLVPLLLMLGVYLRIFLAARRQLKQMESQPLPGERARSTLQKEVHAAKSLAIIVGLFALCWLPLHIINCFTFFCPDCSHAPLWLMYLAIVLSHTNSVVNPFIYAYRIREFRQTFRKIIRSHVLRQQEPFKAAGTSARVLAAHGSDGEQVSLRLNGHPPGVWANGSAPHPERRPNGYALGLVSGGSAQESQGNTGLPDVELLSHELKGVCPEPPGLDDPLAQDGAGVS", "assay": "SAFETYscan47 Calcium Flux", "assay_type": "cell-based", "settings": "3 µM", "experimental": "To further profile any off-target activity, we counter-screened SHR168442 in SAFETYscan47 panel, compiled by DiscoverX based on the recommendation by major pharmaceutical companies. SHR168442 was screened at 3 µM in duplicates."}}, "data": [{"smiles": "CCS(=O)(=O)c1ccc([C@H](CCO)c2nc3c(Cl)c(N4CCC(F)(F)CC4)c(Cl)cc3[nH]2)cc1", "note": "[SHR168442, (S)-3-(4,6-dichloro-5-(4,4-difluoropiperidin-1-yl)-1H-benzo[d]imidazol-2-yl)-3-(4-(ethylsulfonyl)phenyl)propan-1-ol]", "values": [{"measurement": "Exposure in plasma", "setting": "Dermal PK, miniature pig; 2% in Vaseline, 3 h", "result": "blq (below limit of quantitation (< 6 ng/mL))"}, {"measurement": "Exposure in plasma", "setting": "Dermal PK, miniature pig; 2% in Vaseline, 6 h", "result": "blq (below limit of quantitation (< 6 ng/mL))"}, {"measurement": "Exposure in plasma", "setting": "Dermal PK, miniature pig; 2% in Vaseline, 24 h", "result": "blq (below limit of quantitation (< 6 ng/mL))"}, {"measurement": "Exposure in plasma", "setting": "Dermal PK, miniature pig; 8% in Vaseline, 3 h", "result": "blq (below limit of quantitation (< 6 ng/mL))"}, {"measurement": "Exposure in plasma", "setting": "Dermal PK, miniature pig; 8% in Vaseline, 6 h", "result": "blq (below limit of quantitation (< 6 ng/mL))"}, {"measurement": "Exposure in plasma", "setting": "Dermal PK, miniature pig; 8% in Vaseline, 24 h", "result": "blq (below limit of quantitation (< 6 ng/mL))"}, {"measurement": "systemic exposures in miniature pigs", "setting": "Dermal PK, miniature pig; female, Bama, pig, in vivo", "result": "< 6", "unit": "ng/mL"}, {"measurement": "IL17", "setting": "[1]; 0.5% in Vaseline topical", "result": "190 ± 28", "unit": "fg/mL"}, {"measurement": "IL-6", "setting": "[1]; 0.5% in Vaseline topical", "result": "124 ± 32", "unit": "fg/mL"}, {"measurement": "TNFα", "setting": "[1]; 0.5% in Vaseline topical", "result": "5495 ± 837", "unit": "fg/mL"}, {"measurement": "Thickness of the back skin", "setting": "[1]; 0.5% in Vaseline topical", "result": "0.452 ± 0.020", "unit": "mm"}, {"measurement": "clinical scores", "setting": "[1]; 0.5%, 2%, 8% in Vaseline topical, scale 0 to 4", "result": "reduce clinical scores in a dose-dependent manner"}, {"measurement": "IL17", "setting": "[1]; 2% in Vaseline topical", "result": "172 ± 38", "unit": "fg/mL"}, {"measurement": "IL-6", "setting": "[1]; 2% in Vaseline topical", "result": "112 ± 43", "unit": "fg/mL"}, {"measurement": "TNFα", "setting": "[1]; 2% in Vaseline topical", "result": "4284 ± 804", "unit": "fg/mL"}, {"measurement": "Thickness of the back skin", "setting": "[1]; 2% in Vaseline topical", "result": "0.436 ± 0.019", "unit": "mm"}, {"measurement": "IL17", "setting": "[1]; 8% in Vaseline topical", "result": "185 ± 35", "unit": "fg/mL"}, {"measurement": "IL-6", "setting": "[1]; 8% in Vaseline topical", "result": "123 ± 37", "unit": "fg/mL"}, {"measurement": "TNFα", "setting": "[1]; 8% in Vaseline topical", "result": "3380 ± 491", "unit": "fg/mL"}, {"measurement": "Thickness of the back skin", "setting": "[1]; 8% in Vaseline topical", "result": "0.330 ± 0.015", "unit": "mm"}, {"measurement": "reduction of skin thickness", "setting": "[1]; 8% topical, relative to vehicle and naïve group", "result": 97, "unit": "%"}, {"measurement": "body weight", "setting": "[1]; all treatment groups", "result": "no significant body weight loss"}, {"measurement": "half-life at 1 µM", "setting": "[2]", "result": 2.3, "unit": "min"}, {"measurement": "cumulative scores (scaling, erythema, thickness)", "setting": "[3]; 2%, 4% and 8% in Vaseline topical", "result": "clear dose-dependent reduction"}, {"measurement": "scores of erythema", "setting": "[3]; 4% and 8% topical, day 6, versus vehicle control", "result": "significantly reduced"}, {"measurement": "score of scaling", "setting": "[3]; 8% in Vaseline topical, days 4 to 6, scale 0 to 4", "result": "< 1.0"}, {"measurement": "exposures in diseased skin and plasma", "setting": "[3]; 3 h after topical application, all treatments", "result": "high in skin and low in plasma"}, {"measurement": "body weight", "setting": "[3]; all treatment groups", "result": "no significant body weight loss"}, {"measurement": "IC50", "setting": "[4]", "result": "54 ± 12", "unit": "nM"}, {"measurement": "% Response Average", "setting": "ADORA2A; Agonist", "result": 7.3, "unit": "%"}, {"measurement": "% Response Replicate 1", "setting": "ADORA2A; Agonist", "result": 0.0, "unit": "%"}, {"measurement": "% Response Replicate 2", "setting": "ADORA2A; Agonist", "result": 14.7, "unit": "%"}, {"measurement": "% Response Average", "setting": "ADORA2A; Antagonist", "result": 15.1, "unit": "%"}, {"measurement": "% Response Replicate 1", "setting": "ADORA2A; Antagonist", "result": 5.4, "unit": "%"}, {"measurement": "% Response Replicate 2", "setting": "ADORA2A; Antagonist", "result": 24.9, "unit": "%"}]}]}
